The values below come from patent publication US12390437B2, “Itaconic acid derivatives and uses thereof intreating an inflammatory disease or a disease associated with an undesirable immune response” (Sitryx Therapeutics Limited, priority 2019, dated 2025).

Series [1] has as its system IL-6 cytokine output from THP-1s. Description: THP-1 AlphaLISA IL-6 cytokine assay. It is filed as cell-based, human. Conditions: Homo sapiens; PMA-differentiated THP-1 cells, LPS 24 hr then Nigericin 1 hour. The method, boiled down: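 PMA-differentiated (72 h) THP-1 cells pretreated 30 min with compound, LPS-stimulated 24 h, then nigericin 1 h at 37 °C. Supernatant IL-1β and IL-6 by AlphaLISA; % inhibition normalised to ±LPS controls, IC50 from concentration-response curves.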

The nature of series [2]: Mouse pharmacokinetic study, oral administration. It is filed as in vivo. Conditions: male, C57BL/6, mouse, plasma, po, 100 mg/kg, plasma, male C57BL/6 mice, oral gavage 100 mg/kg; for concentration at 0.25 h: read-out: Parent compound concentrations following oral administration, Time 0.25 h; for concentration at 0.5 h: read-out: Parent compound concentrations following oral administration, Time 0.5 h; for concentration at 1 h: read-out: Parent compound concentrations following oral administration, Time 1 h; for concentration at 2 h: read-out: Parent compound concentrations following oral administration, Time 2 h; for concentration at 4 h: read-out: Parent compound concentrations following oral administration, Time 4 h; for concentration at 8 h: read-out: Parent compound concentrations following oral administration, Time 8 h; for concentration at 24 h: read-out: Parent compound concentrations following oral administration, Time 24 h; for concentration at 0.083 h: read-out: Parent compound concentrations following oral administration, Time 0.083 h; for concentration at 6 h: read-out: Parent compound concentrations following oral administration, Time 6 h. In a few lines: (§1)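 Male C57BL/6 mice (6-8 weeks, fed ad libitum) received 10 mg/kg IV by tail vein in 10% DMSO/HP-β-CD vehicle, or 100 mg/kg by oral gavage in DMSO/HPMC/Tween 80. Facial-vein blood was taken at 9 time points (N=3 each) into K2EDTA; plasma concentrations were measured by LC-MS/MS.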

A short description of series [3]: Hepatocyte stability assay (mouse). The series is classed as in vitro ADME. The conditions noted are these: cryopreserved hepatocytes, 10 μM compound, 0.5×10^6 cells/mL, 60 minutes, read-out: T½. The method, boiled down: (§2)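 Cryopreserved hepatocytes (viability >70%), 0.5×10^6 cells/mL in Leibovitz buffer, incubated at 37 °C with 10 μM compound (0.1% DMSO), duplicates; buffer-only incubations as negative control. Samples at 0-60 min quenched in acetonitrile, parent measured by LC-MS/MS; half-life and Clint (μL min^−1 10^−6 cells) from ln % remaining versus time slope.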

For the next series, the system named is hepatocytes. Description: Hepatocyte stability assay (mouse). The series is classed as in vitro ADME. The conditions noted are these: 10 μM compound, 0.5×10^6 cells/mL, 60 minutes. The method, boiled down:
as §2

Series [4] can be described thus: Mouse pharmacokinetic study, intravenous dosing. Conditions: male, C57BL/6, mouse, iv, plasma, 10 mg/kg i.v., read-out: Parent compound concentration following intravenous administration. It is filed as in vivo. In a few lines:
as §1

Bounds are passed on as bounds.

For orientation: IC50 means the concentration that inhibits the measured activity by half. Higher therefore signals a need for much substance. In turn, `C=C(CC(=O)OCCCCCCCC)C(=O)OCC(=O)O` [Example 49, 2-((2-methylene-4-(octyloxy)-4-oxobutanoyl)oxy)acetic acid] returned a 50% inhibitory concentration (IC50) in series [1] of 5.5 µM. Further, in series [2], the concentration at 0.25 h worked out at 536 ng/mL, the concentration at 0.5 h came out at 843 ng/mL, the concentration at 1 h amounted to 344 ng/mL and the concentration at 2 h amounted to 111 ng/mL. In addition, in series [2], the concentration at 4 h worked out at 12 ng/mL, the concentration at 8 h was 4.5 ng/mL and the concentration at 24 h was less than 1.5 ng/mL. For the same molecule, in series [3], the half-life at 10 μM came out at 10 min. The “CIint (μL min^−1 10^−6 cells)” value in the series with hepatocytes was found to be 138 μL min^−1 10^−6 cells.
For the molecule `C=C(CC(=O)OCCCCCCCC)C(=O)OCCC(=O)O` [Example 80, 3-((2-methylene-4-(octyloxy)-4-oxobutanoyl)oxy)propanoic Acid], in series [1], 5.3 µM corresponded to half-maximal inhibition (IC50). In series [2], the concentration at 0.25 h is 850 ng/mL, the concentration at 0.5 h amounted to 1150 ng/mL, the concentration at 1 h is 715 ng/mL and the concentration at 2 h stood at 173 ng/mL. Besides, in series [2], the concentration at 4 h came to 67 ng/mL, the concentration at 8 h was less than 1.5 ng/mL and the concentration at 24 h was less than 1.5 ng/mL. Besides, the half-life at 10 μM in series [3] was determined as 9 min. For the same molecule, the “CIint (μL min^−1 10^−6 cells)” value in the series on hepatocytes came out at 158 μL min^−1 10^−6 cells.
In the case of `C=C(CC(=O)OC1CCCCC1)C(=O)OCCC(=O)O` [Example 87, 3-((4-(cyclohexyloxy)-2-methylene-4-oxobutanoyl)oxy)propanoic acid], it took 100 µM to reach half-maximal inhibition in series [1] (IC50). Further, in series [2], the concentration at 0.25 h is 35300 ng/mL, the concentration at 0.5 h came out at 15900 ng/mL, the concentration at 1 h is 8520 ng/mL and the concentration at 2 h was found to be 1460 ng/mL. Also, in series [2], the concentration at 4 h amounted to 198 ng/mL, the concentration at 8 h turned out to be 31 ng/mL and the concentration at 24 h is less than 14 ng/mL. In addition, the half-life at 10 μM in series [3] came out at 65 min. Further, in the series on hepatocytes, the “CIint (μL min^−1 10^−6 cells)” value is listed as 21 μL min^−1 10^−6 cells.
`C=C(CC(=O)O[C@@H](CC)CCCCC)C(=O)OCC(=O)O` [Example 170, (S)-2-(2-methylene-4-(octan-3-yloxy)-4-oxobutanoyloxy)acetic acid]: in series [4], the concentration at 0.05 h worked out at 37200 ng/mL, the concentration at 0.133 h worked out at 21900 ng/mL, the concentration at 0.25 h amounted to 8930 ng/mL and the concentration at 0.5 h worked out at 1660 ng/mL. In series [4], the concentration at 1 h is 476 ng/mL, the concentration at 2 h came to 66 ng/mL, the concentration at 4 h was 12 ng/mL and the concentration at 6 h is less than 4 ng/mL. Also, the concentration at 8 h in series [4] is less than 4 ng/mL. Moreover, in series [2], the concentration at 0.083 h is 55000 ng/mL, the concentration at 0.25 h amounted to 38400 ng/mL, the concentration at 0.5 h is 40600 ng/mL and the concentration at 1 h was determined as 10100 ng/mL. In addition, in series [2], the concentration at 2 h was 4420 ng/mL, the concentration at 4 h came to 4400 ng/mL, the concentration at 6 h was found to be 441 ng/mL and the concentration at 8 h worked out at 25 ng/mL. In series [2], the concentration at 24 h was 8.1 ng/mL. Besides, the half-life at 10 μM in series [3] came out at 20 min. In addition, the “CIint (μL min^−1 10^−6 cells)” value in the series with hepatocytes was 64 μL min^−1 10^−6 cells.
For the molecule `C=C(CC(=O)O[C@@H](CCCCCC)C(F)(F)F)C(=O)OCC(=O)O` [Example 182, (S)-2-((2-methylene-4-oxo-4-((1,1,1-trifluorooctan-2-yl)oxy)butanoyl)oxy)acetic acid], in series [4], the concentration at 0.05 h was 40800 ng/mL, the concentration at 0.133 h came out at 17900 ng/mL, the concentration at 0.25 h turned out to be 6740 ng/mL and the concentration at 0.5 h is 2890 ng/mL. Further, in series [4], the concentration at 1 h was found to be 642 ng/mL, the concentration at 2 h was determined as 88 ng/mL, the concentration at 4 h is 20 ng/mL and the concentration at 6 h is 6 ng/mL. For the same molecule, in series [4], the concentration at 8 h is less than 4 ng/mL. Further, in series [2], the concentration at 0.083 h is 65900 ng/mL, the concentration at 0.25 h was 46800 ng/mL, the concentration at 0.5 h came to 27900 ng/mL and the concentration at 1 h was found to be 13500 ng/mL. Besides, in series [2], the concentration at 2 h is 5390 ng/mL, the concentration at 4 h was 1370 ng/mL, the concentration at 6 h stood at 1280 ng/mL and the concentration at 8 h is 417 ng/mL. Further, the concentration at 24 h in series [2] turned out to be 5.9 ng/mL. Moreover, in series [3], the half-life at 10 μM came to 9 min. For the same molecule, the “CIint (μL min^−1 10^−6 cells)” value in the series with hepatocytes is reported as 187 μL min^−1 10^−6 cells.
Regarding `C=C(CC(=O)OC(C)(C)CCCCCC)C(=O)OCC(=O)O` [Example 192, 2-((2-methylene-4-((2-methyloctan-2-yl)oxy)-4-oxobutanoyl)oxy)acetic acid], in series [4], the concentration at 0.05 h came out at 36600 ng/mL, the concentration at 0.133 h stood at 21400 ng/mL, the concentration at 0.25 h stood at 11300 ng/mL and the concentration at 0.5 h turned out to be 2910 ng/mL. In series [4], the concentration at 1 h worked out at 400 ng/mL, the concentration at 2 h came to 86 ng/mL, the concentration at 4 h turned out to be 26 ng/mL and the concentration at 6 h is less than 4 ng/mL. In addition, the concentration at 8 h in series [4] is less than 4 ng/mL. In series [2], the concentration at 0.083 h was found to be 47000 ng/mL, the concentration at 0.25 h worked out at 60700 ng/mL, the concentration at 0.5 h came to 37900 ng/mL and the concentration at 1 h is 25200 ng/mL. In addition, in series [2], the concentration at 2 h worked out at 8740 ng/mL, the concentration at 4 h is 5440 ng/mL, the concentration at 6 h worked out at 79 ng/mL and the concentration at 8 h amounted to 41 ng/mL. Moreover, in series [2], the concentration at 24 h came to 6.6 ng/mL. Besides, in series [3], the half-life at 10 μM worked out at 5 min. The “CIint (μL min^−1 10^−6 cells)” value in the series on hepatocytes was determined as 350 μL min^−1 10^−6 cells.
For `C=C(CC(=O)OC(C)(C)CCCCC)C(=O)OCC(=O)O` [Example 193, 2-((2-methylene-4-((2-methylheptan-2-yl)oxy)-4-oxobutanoyl)oxy)acetic acid], in series [4], the concentration at 0.05 h is 28800 ng/mL, the concentration at 0.133 h turned out to be 10700 ng/mL, the concentration at 0.25 h came out at 4040 ng/mL and the concentration at 0.5 h was determined as 1450 ng/mL. In addition, in series [4], the concentration at 1 h amounted to 134 ng/mL, the concentration at 2 h turned out to be 16 ng/mL, the concentration at 4 h was found to be 4.1 ng/mL and the concentration at 6 h is less than 4 ng/mL. Besides, in series [4], the concentration at 8 h is less than 4 ng/mL. In series [2], the concentration at 0.083 h came to 52900 ng/mL, the concentration at 0.25 h is 45600 ng/mL, the concentration at 0.5 h worked out at 31500 ng/mL and the concentration at 1 h was found to be 8930 ng/mL. In series [2], the concentration at 2 h worked out at 2120 ng/mL, the concentration at 4 h was 920 ng/mL, the concentration at 6 h stood at 55 ng/mL and the concentration at 8 h came out at 19 ng/mL. In series [2], the concentration at 24 h worked out at 5.6 ng/mL. Further, the half-life at 10 μM in series [3] was 22 min. The “CIint (μL min^−1 10^−6 cells)” value in the series with hepatocytes came to 79 μL min^−1 10^−6 cells.
